# Values quoted from earlier work as cited in US8252791B2, “Purine compounds as cannabinoid receptor blockers” (Jenrin Discovery, Inc., priority 2008, dated 2012).
# Settings: patients with type 2 diabetes not treated with other anti-diabetic medications; after six months of treatment; baseline value 7.9; placebo group 0.3%
smiles,measurement,value
Cc1c(C(=O)NN2CCCCC2)nn(-c2ccc(Cl)cc2Cl)c1-c1ccc(Cl)cc1 [rimonabant],HbA1c levels lowered,0.8%
